Test results as given in US5380710A, “Pharmaceutical compositions containing ACTH (1-24) for the therapy of shock conditions and respiratory and cardiocirculatory insufficiences” (priority 1985, dated 1995).
Where a name gives a salt, the structure may show the parent alone.

Test system: severe hypotension induced by bleeding (hypovolemic shock), intact rats
Assay: Hypovolemic shock by bleeding in intact rats: mean arterial pressure and survival
Assay type: in vivo, Wistar rats
Method: Intact and adrenalectomized female Wistar rats (Nossan, Correzzano, Milano, Italy) weighing 250 to 300 g, and intact male Beagle dogs (S. Morini, S. Polo d'Enza, Reggio Emilia, Italy) weighing 10 to 12 kg were used. Following anesthetization and heparinization a common carotid artery and an iliac vein were cannulated in rats, while in dogs a femoral artery and vein were used. Arterial blood pressure was recorded by means of a pressure transducer (Statham P23 Db) connected to a polygraph (Battaglia-Rangoni, Bologna, Italy). In some rats, trachea was cannulated and respiration was recorded by means of a transducer (Statham 10272) connected to the same polygraph. Hypovolemic shock was produced by intermittently withdrawing blood from the venous catheter until mean arterial pressure fell to 16-30 mm Hg. In rats, the volume of blood removed was 2-2.5 ml per 100 g of body weight and approximated to, or even exceeded, 50% of the estimated total blood volume; in dogs, the volume of blood removed was 50-60 ml per kg of body weight. Following bleeding and mean blood pressure stabilization in the range of 16-30 mm Hg, animals were given intravenous bolus of either ACTH (1-24) or naloxone.HCl.

For `C=CCN1CC[C@]23c4c5ccc(O)c4O[C@H]2C(=O)CC[C@@]3(O)[C@H]1C5` [Naloxone.HCl, naloxone.HCl], the “Mean arterial pressure before bleeding” value (intact rats (5), Naloxone.HCl 1 μg/kg i.v. group, baseline before treatment, m ± S.E.) was 64,60 ± 4,70 mm Hg, the “Mean arterial pressure after bleeding” value (intact rats (5), Naloxone.HCl 1 μg/kg i.v. group, before treatment, m ± S.E.) was 22,00 ± 3,15 mm Hg and the “No. of deaths 60 min. after treatment” value (intact rats (5), bled, 1 μg/kg i.v.) was 0. For the same compound, the “Mean arterial pressure 15-30 min. after treatment” value (intact rats (5), bled, 1 μg/kg i.v., m ± S.E.) was 58,20 ± 6,12 mm Hg and the “Effect on blood pressure after bleeding” value (rats, bled, 1 mg/kg i.v., within 30 minutes) was “completely restored blood pressure”.
